Experimental data: patent US11840686B2, “Modulation of prekallikrein (PKK) expression” (Ionis Pharmaceuticals, Inc., priority 2013, dated 2023)
Strand notation (5' to 3'): a small letter for the sugar, then the base; units joined by * are phosphorothioate-linked, units joined directly phosphodiester-linked; [ ] holds rarer units or linkages, { } end groups; capitals alone tell only the bases. e = 2'-O-(2-methoxyethyl) (MOE); [5mC] = 5-methylcytosine; d = 2'-deoxy (DNA)

How the values were obtained:
[1] = Urine protein/creatinine ratio in cynomolgus monkeys (Example 8); details: cynomolgus monkey, 40 mg/kg sc
Protocol: (§1) Prior to the study, the monkeys were kept in quarantine for a 30-day period, during which the animals were observed daily for general health. The monkeys were 2-4 years old and weighed between 2 and 4 kg. Ten groups of four randomly assigned male cynomolgus monkeys each were injected subcutaneously with ISIS oligonucleotide or PBS. PBS solution or ISIS oligonucleotides at a dose of 40 mg/kg were administered initially with a loading regimen consisting of four doses on the first week of the study (days 1, 3, 5, and 7), followed by a maintenance regimen consisting of once weekly administration starting on Day 14 (weeks 2 to 13). Subcutaneous injections were performed in clock-wise rotations at 4 sites on the back; one site per dose. The injection sites were delineated by tattoo, while sedated using ketamine, and were separated by a minimum of 3 cm.
Kidney function was also assessed by urinalysis. Fresh urine from all animals was collected using a clean cage pan on wet ice. Food was removed overnight the day before fresh urine collection was done but water was supplied. The total protein and creatinine levels were measured using a Toshiba 120FR NEO automated chemistry analyzer (Toshiba Co., Japan) and the protein to creatinine ratio was calculated.

[2] = Liver function markers in cynomolgus monkeys (Example 8); details: cynomolgus monkey plasma, 40 mg/kg sc
Protocol: as §1
To evaluate the effect of ISIS oligonucleotides on hepatic function, the monkeys were fasted overnight. Approximately, 1.5 mL of blood samples were collected from all the study groups. Blood was collected in tubes without anticoagulant for serum separation. The tubes were kept at room temperature for a minimum of 90 min and then centrifuged at 3,000 rpm for 10 min. Levels of various liver function markers were measured using a Toshiba 120FR NEO chemistry analyzer (Toshiba Co., Japan).

[3] = Hematological parameters in cynomolgus monkeys (Example 8); details: cynomolgus monkey, 40 mg/kg sc, day 87 or day 88
Protocol: as §1
To evaluate any effect of ISIS oligonucleotides in cynomolgus monkeys on hematologic parameters, blood samples of approximately 1.2 mL of blood was collected pre-dose and on day 87 or day 88 from each of the available study animals in tubes containing K2-EDTA. Samples were analyzed for red blood cell (RBC) count, white blood cells (WBC) count, platelet count, hemoglobin content and hematocrit, using an ADVIA2120i hematology analyzer (SIEMENS, USA).

human PKK mRNA = assay: Human PKK mRNA in liver of human KLKB1 transgenic mice (Example 7); type: in vivo; details: transgenic mice
Outline: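 Transgenic mice carrying a 37,390 bp human KLKB1 fragment dosed subcutaneously twice weekly for 3 weeks at 2.5, 5.0, 10 or 20 mg/kg/week; PBS controls. Liver harvested 48 h after the last dose. Human PKK mRNA measured by real-time PCR and expressed as % inhibition versus PBS.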

thrombus formation = assay: Stenosis-induced inferior vena cava thrombosis model, thrombi weights (Example 22); type: in vivo, mouse; details: BALB/c mice; for Thrombi weight: 24 hrs after stenosis
Protocol: Reduced blood flow and endothelial damage are hallmarks of this model, also known as the St. Tomas model.
Four groups of 6-8 BALB/c mice were treated with 5 mg/kg, 10 mg/kg, 20 mg/kg, or 40 mg/kg of ISIS 482584, administered subcutaneously twice a week for 3 weeks (weekly doses of 10 mg/kg, 20 mg/kg, 40 mg/kg, or 80 mg/kg). A control group of 8 BALB/c mice was treated with PBS, administered subcutaneously twice a week for 3 weeks. Two days after the last dose of antisense oligonucleotide or PBS was administered, mice from all groups were anesthetized with 2.5% inhalant isoflurane. The IVC of the mice was exposed via a midline abdominal incision below the left renal vein, and was separated from the abdominal aorta by blunt dissection. A 6-0 silk tie (Ethicon, UK) was placed behind the blood vessel just below the left renal vein and a metal 4-0 suture (Ethicon, UK) was placed longitudinally over the IVC to tie the silk tie on top. The metal suture was then removed. Two neurovascular surgical clips (Braun Medical Inc, PA) were placed at two separate positions below the ligation for 20 seconds each, after which they were removed. The abdominal cavity contents were then replaced and the abdomen was closed. After 24 hrs, the IVC was exposed and checked for thrombi formation. All thrombi formed were collected and fixed in 10% formalin for 24 hrs.
The thrombi were weighed and the results are presented in Table 85, expressed in milligrams.

vascular leakage = assay: Vascular leakage, plasma Evans Blue OD620, basal model (Example 14); type: in vivo, mouse
Protocol: Groups 3, 4, 5, 6, 7, and 8 consisted of 8 mice each and were treated with 2.5 mg/kg, 5 mg/kg, 10 mg/kg, 20 mg/kg, 40 mg/kg, or 80 mg/kg (corresponding to 5 mg/kg, 10 mg/kg, 20 mg/kg, 40 mg/kg, 80 mg/kg, or 160 mg/kg per week), respectively of ISIS 482584 administered subcutaneously twice a week for 3 weeks. […] served as the experimental treatment groups for examining the effect of varying doses of ISIS 482584 on basal vascular permeability.
All the groups were then injected with 30 mg/kg of Evans Blue solution in the tail vein. The mice were sacrificed 30 min after the Evans Blue solution administration and colons, feet, and ears were harvested and examined for permeability defects. Blood samples were taken through cardiac puncture.
The blood drawn through cardiac puncture was immediately mixed with 3 times the volume of ice-cold ethanol. The solution was centrifuged at 15,000 g for 20 minutes at 4° C. to remove cell debris and precipitated plasma proteins. The ethanol extracts were further purified by ultra-filtration through a 10 kDa MWCO filter. The color intensity of the ethanol extracted plasma solution was then measured at OD620 nm. The results are presented in Table 70 as percentage increase or decrease of the OD values of the Group 1 PBS control. It was expected that treatment groups may display higher OD values due to reduced vascular leakage.

Tes Ges mCes Aes Aes Gds Tds mCds Tds mCds Tds Tds Gds Gds mCds Aes Aes Aes mCes Ae [ISIS 546254]
Urine protein/creatinine ratio [1]: 0.04
ALT [2]: 54 IU/L
AST [2]: 68 IU/L
Albumin [2]: 3.8 g/dL
HCT [3]: 41%
Hemoglobin [3]: 12.4 g/dL
Platelets [3]: 436000 µL⁻¹
RBC [3]: 5.3e+06 µL⁻¹
WBC [3]: 11000 µL⁻¹
human PKK mRNA inhibition (human PKK mRNA; 2.5 mg/kg/week s.c. twice a week for 3 weeks): 31%
human PKK mRNA inhibition (human PKK mRNA; 5.0 mg/kg/week s.c. twice a week for 3 weeks): 55%
human PKK mRNA inhibition (human PKK mRNA; 10 mg/kg/week s.c. twice a week for 3 weeks): 84%
human PKK mRNA inhibition (human PKK mRNA; 20 mg/kg/week s.c. twice a week for 3 weeks): 83%

ISIS 482584: 5-10-5 MOE gapmer targeting murine PKK, GGCATATTGGTTTTTGGAAT; SEQ ID NO: 2244 (antisense eG*eG*e[5mC]*eA*eT*dA*dT*dT*dG*dG*dT*dT*dT*dT*dT*eG*eG*eA*eA*eT)
Thrombi weight (thrombus formation; 10 mg/kg/wk sc 3 weeks): 8 mg
Thrombi weight (thrombus formation; 20 mg/kg/wk sc 3 weeks): 6 mg
Thrombi weight (thrombus formation; 40 mg/kg/wk sc 3 weeks): 5 mg
Thrombi weight (thrombus formation; 80 mg/kg/wk sc 3 weeks): 3 mg
thrombus weight (thrombus formation; increasing doses 5-40 mg/kg s.c. twice a week for 3 weeks): corresponding decrease in thrombus weight
Percentage of OD620 nm of Evans Blue dye compared to the PBS basal control, Plasma (vascular leakage; 10 mg/kg/week): 36%
Percentage of OD620 nm of Evans Blue dye compared to the PBS basal control, Plasma (vascular leakage; 20 mg/kg/week): 56%
Percentage of OD620 nm of Evans Blue dye compared to the PBS basal control, Plasma (vascular leakage; 40 mg/kg/week): 83%
Percentage of OD620 nm of Evans Blue dye compared to the PBS basal control, Plasma (vascular leakage; 80 mg/kg/week): 93%
Percentage of OD620 nm of Evans Blue dye compared to the PBS basal control, Plasma (vascular leakage; 160 mg/kg/week): 95%
